In US12054498B2, “Heteroaromatic macrocyclic ether chemotherapeutic agents” (Nuvalent, Inc., priority 2020, dated 2024):

Assays:
ALK-wt = target: T1, ALK-wt (Homo sapiens, UniProt Q9UM73); experiment: Biochemical kinase assay, ALK-wt kinase domain; settings: apparent inhibitory constant, Morrison equation; ATP 2 mM in substrate solution; read-out: ALK-wt Ki^app
T1 construct: purchased Carna 08-518
How it was run: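 Apparent Ki values come from fitting initial reaction rates against inhibitor concentration to the Morrison equation. Rates were taken from the linear phase of fluorogenic substrate phosphorylation (AQT0101 for ALK and ROS1, AQT0104 for TRKA; 26 μM in substrate solution with 2 mM ATP), monitored at 485 nm over 120 min at 30° C.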

ALK L1196M/G1202R = target: T2, ALK L1196M/G1202R (Homo sapiens, UniProt Q9UM73, G1202R/L1196M); experiment: Biochemical kinase assay, ALK L1196M/G1202R kinase domain; settings: apparent inhibitory constant, Morrison equation; ATP 2 mM in substrate solution; read-out: ALK-L1196M-G1202R Ki^app
T2 construct: purchased SignalChem A19-12NG
T2 sequence (Q9UM73 1116-1392 L1196M/G1202R limits assumed): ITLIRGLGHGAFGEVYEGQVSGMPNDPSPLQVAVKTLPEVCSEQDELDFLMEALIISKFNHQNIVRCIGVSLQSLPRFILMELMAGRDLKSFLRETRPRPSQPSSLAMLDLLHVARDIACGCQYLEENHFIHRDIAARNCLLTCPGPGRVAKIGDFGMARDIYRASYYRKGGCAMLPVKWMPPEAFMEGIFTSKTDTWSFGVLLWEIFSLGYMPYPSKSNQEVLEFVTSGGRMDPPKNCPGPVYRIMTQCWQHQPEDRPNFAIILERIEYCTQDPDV
How it was run: (§1)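 Kinase domains (in kinase solution: ROS1-G2032R 0.5 nM, ROS1-wt 0.6 nM, TRKA 1 nM, ALK L1196M/G1202R 3 nM) were mixed with compound and a substrate solution of 2 mM ATP plus 26 μM fluorogenic AQT0101 (ALK, ROS1) or AQT0104 (TRKA) in HEPES pH 7.5/MgCl2. Fluorescence was followed for 120 min at 30° C; Ki^app was obtained by Morrison fit of initial rates.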

ROS1-wt = target: T3, ROS1-wt (Homo sapiens, UniProt P08922); experiment: Biochemical kinase assay, ROS1-wt kinase domain; settings: apparent inhibitory constant, Morrison equation; ATP 2 mM in substrate solution; read-out: ROS1-wt Ki^app
T3 construct: purchased Carna 08-163
T3 sequence (P08922 1945-2222 limits assumed): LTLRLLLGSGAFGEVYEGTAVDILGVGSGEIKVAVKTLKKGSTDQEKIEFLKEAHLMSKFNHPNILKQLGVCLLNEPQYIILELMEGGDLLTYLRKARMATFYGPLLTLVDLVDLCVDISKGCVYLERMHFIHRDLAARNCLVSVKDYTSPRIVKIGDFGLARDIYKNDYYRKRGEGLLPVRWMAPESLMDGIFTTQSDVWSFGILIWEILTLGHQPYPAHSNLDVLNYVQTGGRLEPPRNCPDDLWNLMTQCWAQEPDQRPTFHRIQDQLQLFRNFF
How it was run: (§2)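 Compounds, as 100-fold DMSO stocks, were dispensed first, then substrate mix was added (ATP 2 mM, AQT0101 26 μM, in 50 mM HEPES pH 7.5/10 mM MgCl2). Reactions ran at 30 °C with fluorescence logged every 2 min over 120 min. Apparent inhibition constants came from fitting rates to Morrison's tight-binding equation.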

ROS1-G2032R = target: T4, ROS1-G2032R (Homo sapiens, UniProt P08922, G2032R); experiment: Biochemical kinase assay, ROS1-G2032R kinase domain; settings: apparent inhibitory constant, Morrison equation; ATP 2 mM in substrate solution; read-out: ROS1-G2032R Ki^app
T4 construct: purchased SignalChem R14-12BG
T4 sequence (P08922 1945-2222 G2032R limits assumed): as the sequence (P08922 1945-2222 limits assumed) above, with G88R counted along it
How it was run: as §2

TRKA-wt = target: T5, TRKA-wt (Homo sapiens, UniProt P04629); experiment: Biochemical kinase assay, TRKA-wt kinase domain; settings: apparent inhibitory constant, Morrison equation; ATP 2 mM in substrate solution; read-out: TRKA-wt Ki^app
T5 construct: or TRKA-wt (1 nM, BPS Bio, 40280) kinase domains in buffer; purchased BPS Bio 40280
T5 sequence (P04629 510-781 limits assumed): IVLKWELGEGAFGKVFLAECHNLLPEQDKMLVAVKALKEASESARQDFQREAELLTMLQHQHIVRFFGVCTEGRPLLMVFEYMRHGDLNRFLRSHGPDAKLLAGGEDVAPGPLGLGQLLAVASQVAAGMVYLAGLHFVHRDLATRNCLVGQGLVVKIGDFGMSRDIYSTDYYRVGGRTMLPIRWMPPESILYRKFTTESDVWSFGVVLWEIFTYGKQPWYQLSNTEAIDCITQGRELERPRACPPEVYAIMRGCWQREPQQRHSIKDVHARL
How it was run: as §1

[1] = target: T6, Ba/F3 cells CD74-ROS1 wild-type (wt) (Homo sapiens, UniProt P08922); experiment: Ba/F3 cell proliferation assay, CD74-ROS1 wild-type; type: cell-based; settings: 72 hours, CellTiter-Glo
T6 construct: fusion of the C-terminus of ROS1 with the N-terminus of various partner proteins; host or cells: Ba/F3 (RIKEN), retroviral pMSCV-puro; the other entry of the earlier key: CD74 (P04233, HLA class II histocompatibility antigen gamma chain)
T6 sequence (P08922 1883-2347 limits assumed): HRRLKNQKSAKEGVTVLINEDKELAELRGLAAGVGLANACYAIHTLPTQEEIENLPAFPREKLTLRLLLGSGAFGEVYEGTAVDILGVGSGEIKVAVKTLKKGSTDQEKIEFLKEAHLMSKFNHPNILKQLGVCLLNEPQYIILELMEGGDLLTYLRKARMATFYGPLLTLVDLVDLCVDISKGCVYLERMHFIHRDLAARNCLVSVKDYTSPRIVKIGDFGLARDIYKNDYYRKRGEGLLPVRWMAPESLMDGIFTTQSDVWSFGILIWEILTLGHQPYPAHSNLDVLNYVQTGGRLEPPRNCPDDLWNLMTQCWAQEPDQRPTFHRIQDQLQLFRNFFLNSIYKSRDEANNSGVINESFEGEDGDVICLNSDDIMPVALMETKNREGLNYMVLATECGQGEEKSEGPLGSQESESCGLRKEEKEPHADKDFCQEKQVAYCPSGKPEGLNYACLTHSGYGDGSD
How it was run: (§3)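 Cells seeded 1 day, then treated with 3-fold compound dilutions for 72 h; viability by CellTiter-Glo luminescence. IC50 from percent inhibition by four-parameter logistic fit.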

[2] = target: T7, Ba/F3 cells CD74-ROS1 G2032R (Homo sapiens, UniProt P08922, G2032R); experiment: Ba/F3 cell proliferation assay, CD74-ROS1 G2032R; type: cell-based; settings: 72 hours, CellTiter-Glo
T7 construct: fusion of the C-terminus of ROS1 with the N-terminus of various partner proteins; host or cells: Ba/F3 (RIKEN), retroviral pMSCV-puro; the other entry of the earlier key: CD74 (P04233, HLA class II histocompatibility antigen gamma chain)
T7 sequence (P08922 1883-2347 G2032R limits assumed): as the sequence (P08922 1883-2347 limits assumed) above, with G150R counted along it
How it was run: as §3

[3] = target: T8, Ba/F3 cells EML4-ALK wt (variant 1) (Homo sapiens, UniProt Q9UM73); experiment: Ba/F3 cell proliferation assay, EML4-ALK wt (variant 1); type: cell-based; settings: 72 hours, CellTiter-Glo
T8 construct: echinoderm microtubule-associated protein-like 4 (EML4) gene and the ALK tyrosine kinase domain; host or cells: Ba/F3 (RIKEN), retroviral pMSCV-puro; the other entry of the earlier key: EML4 (Q9HC35, Echinoderm microtubule-associated protein-like 4)
T8 sequence (Q9UM73 with tags, fused parts or gaps): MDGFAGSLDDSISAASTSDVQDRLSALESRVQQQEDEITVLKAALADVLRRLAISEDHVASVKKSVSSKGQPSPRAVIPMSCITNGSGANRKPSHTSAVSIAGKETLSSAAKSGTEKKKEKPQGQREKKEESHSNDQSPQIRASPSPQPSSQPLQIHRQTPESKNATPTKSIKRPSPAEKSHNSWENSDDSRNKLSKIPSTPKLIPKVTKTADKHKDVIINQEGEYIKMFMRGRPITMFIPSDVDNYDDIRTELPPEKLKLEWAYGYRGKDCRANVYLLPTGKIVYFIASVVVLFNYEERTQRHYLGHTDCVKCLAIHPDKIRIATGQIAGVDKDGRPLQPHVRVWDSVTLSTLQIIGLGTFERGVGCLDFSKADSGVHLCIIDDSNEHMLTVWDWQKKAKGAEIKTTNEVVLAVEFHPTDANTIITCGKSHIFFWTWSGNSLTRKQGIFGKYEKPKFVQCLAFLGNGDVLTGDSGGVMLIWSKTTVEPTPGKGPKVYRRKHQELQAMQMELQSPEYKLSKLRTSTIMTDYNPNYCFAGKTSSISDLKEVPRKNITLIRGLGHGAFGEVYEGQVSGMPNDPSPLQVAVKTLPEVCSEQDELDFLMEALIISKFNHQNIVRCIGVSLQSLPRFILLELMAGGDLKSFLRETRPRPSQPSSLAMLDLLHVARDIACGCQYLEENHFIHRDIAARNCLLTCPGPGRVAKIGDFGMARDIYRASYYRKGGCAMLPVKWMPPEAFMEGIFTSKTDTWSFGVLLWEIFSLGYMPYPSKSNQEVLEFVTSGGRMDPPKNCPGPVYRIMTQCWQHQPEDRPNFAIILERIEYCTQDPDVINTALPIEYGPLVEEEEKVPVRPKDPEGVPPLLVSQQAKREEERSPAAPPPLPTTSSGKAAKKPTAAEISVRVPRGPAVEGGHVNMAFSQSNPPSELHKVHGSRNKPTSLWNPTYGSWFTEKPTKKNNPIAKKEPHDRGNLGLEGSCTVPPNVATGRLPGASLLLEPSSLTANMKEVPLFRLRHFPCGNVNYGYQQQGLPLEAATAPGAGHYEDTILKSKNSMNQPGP
How it was run: (§4)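 Luminescence from CellTiter-Glo after 72 hours of compound exposure measured viability of IL-3-independent Ba/F3 cells carrying the retrovirally introduced fusion. Cells were plated at 1,000 per well one day before 3-fold serial dilutions were added. IC50 values came from four-parameter logistic regression.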

[4] = target: T9, Ba/F3 cells EML4-ALK L1196M/G1202R (variant 1) (Homo sapiens, UniProt Q9UM73, G1202R/L1196M); experiment: Ba/F3 cell proliferation assay, EML4-ALK L1196M/G1202R (variant 1); type: cell-based; settings: 72 hours, CellTiter-Glo
T9 construct: echinoderm microtubule-associated protein-like 4 (EML4) gene and the ALK tyrosine kinase domain; host or cells: Ba/F3 (RIKEN), retroviral pMSCV-puro; the other entry of the earlier key: EML4 (Q9HC35, Echinoderm microtubule-associated protein-like 4)
T9 sequence (Q9UM73 with tags, fused parts or gaps L1196M/G1202R): as the sequence (Q9UM73 with tags, fused parts or gaps) above, with L635M, G641R counted along it
How it was run: as §4

Ba/F3 cells TPM3-TRKA = target: T10, Ba/F3 cells TPM3-TRKA (Homo sapiens, UniProt P04629); experiment: Ba/F3 cell proliferation assay, TPM3-TRKA; type: cell-based; settings: 72 hours, CellTiter-Glo, read-out: TPM3-NTRK1-wt IC50
T10 construct: host or cells: Ba/F3 (RIKEN), retroviral pMSCV-puro; the other entry of the earlier key: TPM3 (P06753, Tropomyosin alpha-3 chain)
T10 sequence (P04629 510-796 limits assumed): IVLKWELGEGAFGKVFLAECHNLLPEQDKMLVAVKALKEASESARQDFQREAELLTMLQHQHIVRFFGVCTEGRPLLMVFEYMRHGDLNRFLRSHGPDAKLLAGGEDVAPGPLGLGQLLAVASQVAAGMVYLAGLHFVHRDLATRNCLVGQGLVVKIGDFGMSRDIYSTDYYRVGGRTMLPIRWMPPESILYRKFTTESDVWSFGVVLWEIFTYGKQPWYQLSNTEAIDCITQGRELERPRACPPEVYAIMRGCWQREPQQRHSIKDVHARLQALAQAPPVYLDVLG
How it was run: as §4

[5] = test system: TPM3-NTRK1-wt IC50 / primary target IC50 (e.g. CD74-ROS1-wt); experiment: TRKA selectivity in Ba/F3 cells (TRKA potency divided by primary target potency); type: cell-based; settings: for TPM3-NTRK1-wt/CD74-ROS1-G2032R selectivity ratio: TRKA potency / CD74-ROS1-G2032R potency; for TPM3-NTRK1-wt/CD74-ROS1-wt selectivity ratio: TRKA potency / CD74-ROS1-wt potency; for TPM3-NTRK1-wt/EML4-ALK-L1196M-G1202R selectivity ratio: TRKA potency / EML4-ALK-L1196M-G1202R potency; for TPM3-NTRK1-wt/EML4-ALK-wt selectivity ratio: TRKA potency / EML4-ALK-wt potency
Procedure: TRKA selectivity was calculated by dividing a compound's TRKA potency by its primary target potency (e.g. TPM3-NTRK1-wt IC50/CD74-ROS1-wt IC50). Compound selectivity can be interpreted by binning ratio values: bin A for very high selectivity, ratio >30-fold; bin B for high selectivity, ratio >10-fold; bin C for moderate selectivity, ratio ≥1; and bin D for low selectivity, ratio <1. […] (nd=not determined).

T1 sequence (Q9UM73 1116-1392 limits assumed): as the sequence (Q9UM73 1116-1392 L1196M/G1202R limits assumed) above, with M81L, R87G counted along it

SMILES | Ki (ALK-wt) [nM] | Ki (ALK L1196M/G1202R) [nM] | Ki (ROS1-wt) [nM] | Ki (ROS1-G2032R) [nM] | Ki (TRKA-wt) [nM] | IC50 [1] [nM] | IC50 [2] [nM] | IC50 [3] [nM] | IC50 [4] [nM] | IC50 (Ba/F3 cells TPM3-TRKA) [nM] | TPM3-NTRK1-wt/CD74-ROS1-G2032R selectivity ratio [5] | TPM3-NTRK1-wt/CD74-ROS1-wt selectivity ratio [5] | TPM3-NTRK1-wt/EML4-ALK-L1196M-G1202R selectivity ratio [5] | TPM3-NTRK1-wt/EML4-ALK-wt selectivity ratio [5]
C[C@H]1Oc2cc(cnc2N)-c2c(cnn2CC2CC2)Cc2ncc(F)cc2-c2ccc(F)cc21 [Example 72, (20R)-3-(cyclopropylmethyl)-11,17-difluoro-20-methyl-21-oxa-3,4,9,24-tetraazapentacyclo[20.3.1.0^2,^6.0^8,^13.0^14,^19]hexacosa-1(25),2(6),4,8(13),9,11,14,16,18,22(26),23-undecaen-23-amine] | < 50 | < 50 | < 50 | < 50 | 50 to 500 | 0.1 to 50 | 0.1 to 50 | 0.1 to 50 | 0.1 to 50 | 50 to 500 | A (bin A for very high selectivity, ratio >30-fold) | A (bin A for very high selectivity, ratio >30-fold) | A (bin A for very high selectivity, ratio >30-fold) | A (bin A for very high selectivity, ratio >30-fold)
C[C@H]1Oc2cc(cnc2N)-c2c(cnn2CC(F)F)Cc2ncc(F)cc2-c2ccc(F)cc21 [Example 73, (20R)-3-(2,2difluoroethyl)-11,17-difluoro-20-methyl-21-oxa-3,4.9,24-tetraazapentacyclo[20.3.1.0^2,^6.0^8,^13.0^13,^19]hexacosa-1(25),2(6),4,8(13),9,11,14,16,18,22(26),23-undecaen-23-amine] | < 50 | < 50 | < 50 | < 50 | 50 to 500 | 0.1 to 50 | 0.1 to 50 | 0.1 to 50 | 50 to 500 | 50 to 500 | A (bin A for very high selectivity, ratio >30-fold) | A (bin A for very high selectivity, ratio >30-fold) | C (bin C for moderate selectivity, ratio ≥1) | A (bin A for very high selectivity, ratio >30-fold)
C[C@H]1Oc2cc(cnc2N)-c2c(cnn2CC2CC2)Cn2nc(Cl)cc2-c2ccc(F)cc21 [Example 74, (19R)-10-chloro-3-(cyclopropylmethyl)-16-fluoro-19-methyl-20-oxa-3,4,8,9,23-pentaazapentacyclo[19.3.1.0^2,^6.0^8,^12.0^13,^18]pentacosa-1(24),2(6),4,9,11,13,15,17,21 (25),22-decaen-22-amine] | < 50 | < 50 | < 50 | < 50 | 50 to 500 | 0.1 to 50 | 0.1 to 50 | 0.1 to 50 | 0.1 to 50 | 50 to 500 | A (bin A for very high selectivity, ratio >30-fold) | A (bin A for very high selectivity, ratio >30-fold) | B (bin B for high selectivity, ratio >10-fold) | A (bin A for very high selectivity, ratio >30-fold)

Continued, in another order:

Ki (ALK-wt) [nM] | Ki (ALK L1196M/G1202R) [nM] | Ki (ROS1-wt) [nM] | Ki (ROS1-G2032R) [nM] | Ki (TRKA-wt) [nM] | IC50 [1] [nM] | IC50 [2] [nM] | IC50 [3] [nM] | IC50 [4] [nM] | IC50 (Ba/F3 cells TPM3-TRKA) [nM] | SMILES | TPM3-NTRK1-wt/CD74-ROS1-G2032R selectivity ratio [5] | TPM3-NTRK1-wt/CD74-ROS1-wt selectivity ratio [5] | TPM3-NTRK1-wt/EML4-ALK-L1196M-G1202R selectivity ratio [5] | TPM3-NTRK1-wt/EML4-ALK-wt selectivity ratio [5]
< 50 | < 50 | < 50 | < 50 | > 500 | 0.1 to 50 | 0.1 to 50 | 0.1 to 50 | 0.1 to 50 | > 500 | C[C@H]1Oc2cc(cnc2N)-c2c(cnn2CC2CC2)Cc2nn(C)nc2-c2ccc(F)cc21 [Example 69, (19R)-3-(cyclopropylmethyl)-16-fluoro-10,19-dimethyl-20-oxa-3,4,9,10,11,23-hexaazapentacyclo[19.3.1.0^2,^6.0^8,^12.0^13,^18]pentacosa-1(24),2(6),4,8,11,13,15,17,21(25),22-decaen-22-amine] | A (bin A for very high selectivity, ratio >30-fold) | A (bin A for very high selectivity, ratio >30-fold) | A (bin A for very high selectivity, ratio >30-fold) | A (bin A for very high selectivity, ratio >30-fold)
< 50 | < 50 | < 50 | < 50 | > 500 | 0.1 to 50 | 0.1 to 50 | 0.1 to 50 | 50 to 500 | > 500 | C[C@H]1Oc2cc(cnc2N)-c2c(cnn2CC2CC2)Cn2ncnc2-c2ccc(F)cc21 [Example 70, (19R)-3-(cyclopropylmethyl)-16-fluoro-19-methyl-20-oxa-3,4,8,9,11,23-hexaazapentacyclo[19.3.1.0^2,^6.0^8,^12.0^13,^18]pentacosa-1(24),2(6),4,9,11,13,15,17,21(25),22-decaen-22-amine] | A (bin A for very high selectivity, ratio >30-fold) | A (bin A for very high selectivity, ratio >30-fold) | A (bin A for very high selectivity, ratio >30-fold) | A (bin A for very high selectivity, ratio >30-fold)
< 50 | < 50 | < 50 | 50 to 500 | > 500 | 0.1 to 50 | 0.1 to 50 | 50 to 500 | 50 to 500 | > 500 | Cc1nn(CC2CC2)c2c1Cc1nn(C)nc1-c1ccc(F)cc1COc1cc-2cnc1N [Example 71, 3-(cyclopropylmethyl)-16-fluoro-5,10-dimethyl-20-oxa-3,4,9,10,11,23-hexaazapentacyclo[19.3.1.0^2,^6.0^8,^12.0^13,^18]pentacosa-1(24),2(6),4,8,11,13,15,17,21(25),22-decaen-22-amine] | A (bin A for very high selectivity, ratio >30-fold) | A (bin A for very high selectivity, ratio >30-fold) | B (bin B for high selectivity, ratio >10-fold) | A (bin A for very high selectivity, ratio >30-fold)
